Laboratory results from ChEMBL document CHEMBL3632618, “The isolation and synthesis of a novel benzofuran compound from Tephrosia purpurea, and the synthesis of several related derivatives, which suppress histamine H1 receptor gene expression” (Bioorg Med Chem, 2015).
pIC50: −log10 of the molar value.

Test system: HeLa
Assay: Downregulation of PMA-induced H1R mRNA expressed in human HeLa cells incubated for 1 hr prior to PMA stimulation by RT-PCR method
Type: functional, cell-based
Details: for pIC50: read-out: IC50; call rule not given here

Row | SMILES | IC50 (hela) | pIC50 (Homo sapiens, HeLa) | pIC50 (hela)
1 | COc1cc2occc2cc1C(=O)O | Not Active |  | 
2 | COc1c(C(=O)O)ccc2occc12 | Not Active |  | 
3 | NC(=O)c1ccc2occc2c1O | Not Active |  | 

Other lines, results leading:

Row | IC50 (hela) | pIC50 (Homo sapiens, HeLa) | pIC50 (hela) | SMILES
4 |  | 4.12 | 4.08 | COc1c(C(N)=O)ccc2occc12
5 |  | 4.31 |  | COc1cc2occc2cc1C(N)=O
6 |  | 4.07 |  | NC(=O)c1cc2ccoc2cc1O
